Measured values published in ChEMBL document CHEMBL1201861, “Genomics of Drug Sensitity in Cancer screening data, Wellcome Trust Sanger Institute”.
pIC50: −log10 of the molar value.

How the values were obtained:
Assay in all cases: cells
[1] = tested on: EW-3; format: functional, cell-based; details: Homo sapiens;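 further: cell viability assay read-out, IC50 reflects inhibition of growth of the EW-3 cells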
Description: SANGER: Inhibition of human EW-3 cell growth in a cell viability assay.

[2] = tested on: A498; format: functional, cell-based, Homo sapiens; details: Homo sapiens, A498;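 further: growth inhibition of human A498 cells, read out with a cell viability assay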
Description: SANGER: Inhibition of human A498 cell growth in a cell viability assay.

[3] = tested on: SK-UT-1; format: functional, cell-based, Homo sapiens; details: Homo sapiens, SK-UT-1;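 further: growth inhibition of SK-UT-1 cells, measured by a cell viability assay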
Description: SANGER: Inhibition of human SK-UT-1 cell growth in a cell viability assay.

[4] = tested on: SJSA-1; format: functional, cell-based, Homo sapiens; details: Homo sapiens, SJSA-1;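 further: growth inhibition of human SJSA-1 cells, read out through a cell viability measurement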
Description: SANGER: Inhibition of human SJSA-1 cell growth in a cell viability assay.

[5] = tested on: SNU-449; format: functional, cell-based, Homo sapiens; details: Homo sapiens, SNU-449
Description: SANGER: Inhibition of human SNU-449 cell growth in a cell viability assay.

[6] = tested on: HCE-4; format: functional, cell-based, Homo sapiens; details: Homo sapiens, HCE-4;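 further: cell viability assay measuring inhibition of growth in the human HCE-4 cell line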
Description: SANGER: Inhibition of human HCE-4 cell growth in a cell viability assay.

[7] = tested on: ATN-1; format: functional, cell-based; details: Homo sapiens;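 further: growth inhibition of human ATN-1 cells, read out with a cell viability assay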
Description: SANGER: Inhibition of human ATN-1 cell growth in a cell viability assay.

[8] = tested on: NY; format: functional, cell-based, Homo sapiens; details: Homo sapiens, NY
Description: SANGER: Inhibition of human NY cell growth in a cell viability assay.

[9] = tested on: NCI-H1092; format: functional, cell-based; details: Homo sapiens;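 further: cell growth inhibition measured with a cell viability assay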
Description: SANGER: Inhibition of human NCI-H1092 cell growth in a cell viability assay.

[10] = tested on: A253 cell line; format: functional, cell-based, Homo sapiens; details: Homo sapiens, A253;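 further: growth inhibition of A253 cells, read out with a cell viability assay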
Description: SANGER: Inhibition of human A253 cell growth in a cell viability assay.

[11] = tested on: YKG-1; format: functional, cell-based, Homo sapiens; details: Homo sapiens, YKG-1;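 further: cell growth inhibition, read out with a viability assay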
Description: SANGER: Inhibition of human YKG-1 cell growth in a cell viability assay.

[12] = tested on: NCI-H1755; format: functional, cell-based, Homo sapiens; details: Homo sapiens, NCI-H1755;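 further: cell viability readout used to measure growth inhibition of NCI-H1755 cells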
Description: SANGER: Inhibition of human NCI-H1755 cell growth in a cell viability assay.

[13] = tested on: HuCCT-1; format: functional, cell-based, Homo sapiens, HuCCT1; details: Homo sapiens, HuCCT-1;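 further: growth inhibition of HuCCT-1 cells, read out by a cell viability assay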
Description: SANGER: Inhibition of human HuCCT1 cell growth in a cell viability assay.

[14] = tested on: ML-2; format: functional, cell-based; details: Homo sapiens;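 further: growth inhibition of ML-2 cells, measured with a cell viability readout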
Description: SANGER: Inhibition of human ML-2 cell growth in a cell viability assay.

[15] = tested on: SHP77; format: functional, cell-based, Homo sapiens, SHP-77; details: Homo sapiens, SHP77;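 further: growth inhibition of human SHP-77 cells measured by a cell viability assay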
Description: SANGER: Inhibition of human SHP-77 cell growth in a cell viability assay.

[16] = tested on: JVM-3; format: functional, cell-based; details: Homo sapiens;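 further: growth inhibition of human JVM-3 cells, read out with a cell viability assay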
Description: SANGER: Inhibition of human JVM-3 cell growth in a cell viability assay.

[17] = tested on: Becker; format: functional, cell-based, Homo sapiens; details: Homo sapiens, Becker;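 further: growth inhibition of Becker cells, read out with a cell viability assay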
Description: SANGER: Inhibition of human Becker cell growth in a cell viability assay.

[18] = tested on: SW1573; format: functional, cell-based, Homo sapiens; details: Homo sapiens, SW1573;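 further: growth inhibition of SW1573 cells, read out with a cell viability assay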
Description: SANGER: Inhibition of human SW1573 cell growth in a cell viability assay.

[19] = tested on: SF-539; format: functional, cell-based, Homo sapiens; details: Homo sapiens, SF-539;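 further: Read-out is a cell viability assay, with IC50 reflecting inhibition of cell growth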
Description: SANGER: Inhibition of human SF539 cell growth in a cell viability assay.

[20] = tested on: BB49-HNC; format: functional, cell-based, Homo sapiens; details: Homo sapiens, BB49-HNC;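 further: cell viability assay read-out, reported as inhibition of BB49-HNC cell growth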
Description: SANGER: Inhibition of human BB49-HNC cell growth in a cell viability assay.

[21] = tested on: P30-OHK; format: functional, cell-based; details: Homo sapiens;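 further: growth inhibition of the P30-OHK cell line, read out with a cell viability assay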
Description: SANGER: Inhibition of human P30-OHK cell growth in a cell viability assay.

[22] = tested on: TCC-SUP; format: functional, cell-based, Homo sapiens; details: Homo sapiens, TCC-SUP;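 further: growth inhibition of TCC-SUP cells, read out with a cell viability assay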
Description: SANGER: Inhibition of human TCCSUP cell growth in a cell viability assay.

[23] = tested on: HL-60; format: functional, cell-based; details: Homo sapiens;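 further: growth inhibition of human HL-60 cells, read out with a cell viability assay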
Description: SANGER: Inhibition of human HL-60 cell growth in a cell viability assay.

[24] = tested on: MHH-PREB-1; format: functional, cell-based; details: Homo sapiens;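 further: cell viability assay measuring inhibition of proliferation of human MHH-PREB-1 cells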
Description: SANGER: Inhibition of human MHH-PREB-1 cell growth in a cell viability assay.

[25] = tested on: NCI-H209; format: functional, cell-based; details: Homo sapiens;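 further: growth inhibition of human NCI-H209 cells, measured by a cell viability assay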
Description: SANGER: Inhibition of human NCI-H209 cell growth in a cell viability assay.

[26] = tested on: IST-SL1; format: functional, cell-based, Homo sapiens; details: Homo sapiens, IST-SL1;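 further: growth inhibition of human IST-SL1 cells, read out with a cell viability assay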
Description: SANGER: Inhibition of human IST-SL1 cell growth in a cell viability assay.

[27] = tested on: 647-V; format: functional, cell-based, Homo sapiens; details: Homo sapiens, 647-V;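 further: growth inhibition of 647-V cells, read out with a cell viability assay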
Description: SANGER: Inhibition of human 647-V cell growth in a cell viability assay.

[28] = tested on: HTC-C3; format: functional, cell-based, Homo sapiens; details: Homo sapiens, HTC-C3;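 further: inhibition of cell growth, read out with a cell viability assay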
Description: SANGER: Inhibition of human HTC-C3 cell growth in a cell viability assay.

[29] = tested on: BCPAP; format: functional, cell-based, Homo sapiens; details: Homo sapiens, BCPAP;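 further: growth inhibition of BCPAP cells, read out in a cell viability assay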
Description: SANGER: Inhibition of human BCPAP cell growth in a cell viability assay.

[30] = tested on: G-401; format: functional, cell-based, Homo sapiens; details: Homo sapiens, G-401
Description: SANGER: Inhibition of human G-401 cell growth in a cell viability assay.

[31] = tested on: MC116; format: functional, cell-based; details: Homo sapiens;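 further: growth inhibition of MC116 cells, read out with a cell viability assay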
Description: SANGER: Inhibition of human MC116 cell growth in a cell viability assay.

[32] = tested on: NCI-H1651; format: functional, cell-based, Homo sapiens; details: Homo sapiens, NCI-H1651;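 further: Read-out is a cell viability assay, with IC50 expressing inhibition of NCI-H1651 cell growth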
Description: SANGER: Inhibition of human NCI-H1651 cell growth in a cell viability assay.

[33] = tested on: CAL-62; format: functional, cell-based, Homo sapiens; details: Homo sapiens, CAL-62;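 further: growth inhibition of CAL-62 cells, read out with a cell viability assay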
Description: SANGER: Inhibition of human CAL-62 cell growth in a cell viability assay.

[34] = tested on: LS-513; format: functional, cell-based, Homo sapiens; details: Homo sapiens, LS-513
Description: SANGER: Inhibition of human LS-513 cell growth in a cell viability assay.

[35] = tested on: COLO-679; format: functional, cell-based, Homo sapiens; details: Homo sapiens, COLO-679
Description: SANGER: Inhibition of human COLO-679 cell growth in a cell viability assay.

[36] = tested on: LB831-BLC; format: functional, cell-based, Homo sapiens; details: Homo sapiens, LB831-BLC;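 further: growth inhibition of LB831-BLC cells, read out with a cell viability assay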
Description: SANGER: Inhibition of human LB831-BLC cell growth in a cell viability assay.

[37] = tested on: SK-NEP-1; format: functional, cell-based; details: Homo sapiens;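 further: growth inhibition of human SK-NEP-1 cells, read out by a cell viability assay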
Description: SANGER: Inhibition of human SK-NEP-1 cell growth in a cell viability assay.

[38] = tested on: TGW; format: functional, cell-based; details: Homo sapiens;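 further: growth inhibition of human TGW cells, read out with a cell viability assay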
Description: SANGER: Inhibition of human TGW cell growth in a cell viability assay.

[39] = tested on: H4; format: functional, cell-based; details: Homo sapiens
Description: SANGER: Inhibition of human H4 cell growth in a cell viability assay.

[40] = tested on: OAW-42; format: functional, cell-based, Homo sapiens; details: Homo sapiens, OAW-42;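 further: growth inhibition of OAW-42 cells, read out with a cell viability assay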
Description: SANGER: Inhibition of human OAW-42 cell growth in a cell viability assay.

[41] = tested on: DEL; format: functional, cell-based; details: Homo sapiens;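 further: growth inhibition of the human DEL cell line, read out with a cell viability assay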
Description: SANGER: Inhibition of human DEL cell growth in a cell viability assay.

[42] = tested on: SCC-15; format: functional, cell-based, Homo sapiens; details: Homo sapiens, SCC-15;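 further: growth inhibition of SCC-15 cells, read out with a cell viability assay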
Description: SANGER: Inhibition of human SCC-15 cell growth in a cell viability assay.

[43] = tested on: MDA-MB-175-VII; format: functional, cell-based, Homo sapiens; details: Homo sapiens, MDA-MB-175-VII
[44] = tested on: GR-ST; format: functional, cell-based; details: Homo sapiens
Description: SANGER: Inhibition of human GR-ST cell growth in a cell viability assay.

[45] = tested on: A4-Fuk; format: functional, cell-based; details: Homo sapiens;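 further: growth inhibition of A4-Fuk cells, read out by a cell viability assay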
Description: SANGER: Inhibition of human A4-Fuk cell growth in a cell viability assay.

[46] = tested on: RPMI-8226; format: functional, cell-based; details: Homo sapiens
Description: SANGER: Inhibition of human RPMI-8226 cell growth in a cell viability assay.

[47] = tested on: SW13; format: functional, cell-based, Homo sapiens; details: Homo sapiens, SW13;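 further: IC50 is inhibition of SW13 cell growth, read out with a cell viability assay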
Description: SANGER: Inhibition of human SW13 cell growth in a cell viability assay.

[48] = tested on: D-336MG; format: functional, cell-based, Homo sapiens; details: Homo sapiens, D-336MG
Description: SANGER: Inhibition of human D-336MG cell growth in a cell viability assay.

[49] = tested on: LB2241-RCC; format: functional, cell-based, Homo sapiens; details: Homo sapiens, LB2241-RCC;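 further: cell viability assay measuring how strongly the cultured human renal carcinoma line is prevented from growing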
Description: SANGER: Inhibition of human LB2241-RCC cell growth in a cell viability assay.

[50] = tested on: MSTO-211H; format: functional, cell-based, Homo sapiens; details: Homo sapiens, MSTO-211H
Description: SANGER: Inhibition of human MSTO-211H cell growth in a cell viability assay.

[51] = tested on: LB373-MEL-D; format: functional, cell-based, Homo sapiens; details: Homo sapiens, LB373-MEL-D;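 further: growth inhibition of the cell line, read out in a cell viability assay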
Description: SANGER: Inhibition of human LB373-MEL-D cell growth in a cell viability assay.

Structure (SMILES): O=C1N=C(NCc2cccs2)S/C1=C\c1ccc2ncccc2c1
- pIC50 [1]: < 5.30
- pIC50 [2]: < 5.30
- pIC50 [3]: < 5.30
- pIC50 [4]: < 5.30
- pIC50 [5]: < 5.30
- pIC50 [6]: < 5.30
- pIC50 [7]: < 5.30
- pIC50 [8]: < 5.30
- pIC50 [9]: < 5.30
- pIC50 [10]: < 5.30
- pIC50 [11]: < 5.30
- pIC50 [12]: < 5.30
- pIC50 [13]: < 5.30
- pIC50 [14]: < 5.30
- pIC50 [15]: < 5.30
- pIC50 [16]: < 5.30
- pIC50 [17]: < 5.30
- pIC50 [18]: < 5.30
- pIC50 [19]: < 5.30
- pIC50 [20]: < 5.30
- pIC50 [21]: < 5.30
- pIC50 [22]: < 5.30
- pIC50 [23]: < 5.30
- pIC50 [24]: < 5.30
- pIC50 [25]: < 5.30
- pIC50 [26]: < 5.30
- pIC50 [27]: < 5.30
- pIC50 [28]: < 5.30
- pIC50 [29]: < 5.30
- pIC50 [30]: < 5.30
- pIC50 [31]: < 5.30
- pIC50 [32]: < 5.30
- pIC50 [33]: < 5.30
- pIC50 [34]: < 5.30
- pIC50 [35]: < 5.30
- pIC50 [36]: < 5.30
- pIC50 [37]: < 5.30
- pIC50 [38]: < 5.30
- pIC50 [39]: 5.94
- pIC50 [40]: < 5.30
- pIC50 [41]: < 5.30
- pIC50 [42]: < 5.30
- pIC50 [43]: < 5.30
- pIC50 [44]: < 5.30
- pIC50 [45]: 5.69
- pIC50 [46]: < 5.30
- pIC50 [47]: < 5.30
- pIC50 [48]: < 5.30
- pIC50 [49]: < 5.30
- pIC50 [50]: < 5.30

Structure (SMILES): O=c1cc(-c2cccc3c2Sc2ccccc2S3)oc(N2CCOCC2)c1 [KU-55933]
- pIC50 [2]: < 5.00
- pIC50 [3]: < 5.00
- pIC50 [4]: < 5.00
- pIC50 [5]: < 5.00
- pIC50 [6]: < 5.00
- pIC50 [7]: < 5.00
- pIC50 [8]: < 5.00
- pIC50 [9]: < 5.00
- pIC50 [10]: < 5.00
- pIC50 [11]: < 5.00
- pIC50 [12]: < 5.00
- pIC50 [13]: < 5.00
- pIC50 [15]: < 5.00
- pIC50 [16]: < 5.00
- pIC50 [51]: < 5.00
- pIC50 [17]: < 5.00
- pIC50 [18]: < 5.00
- pIC50 [19]: < 5.00
- pIC50 [20]: < 5.00
- pIC50 [21]: < 5.00
- pIC50 [22]: < 5.00
- pIC50 [23]: < 5.00
- pIC50 [24]: < 5.00
- pIC50 [26]: < 5.00
- pIC50 [27]: < 5.00
- pIC50 [28]: < 5.00
- pIC50 [29]: < 5.00
- pIC50 [30]: < 5.00
- pIC50 [31]: < 5.00
- pIC50 [32]: < 5.00
- pIC50 [33]: < 5.00
- pIC50 [34]: < 5.00
- pIC50 [35]: < 5.00
- pIC50 [36]: < 5.00
- pIC50 [37]: < 5.00
- pIC50 [38]: < 5.00
- pIC50 [39]: < 5.00
- pIC50 [40]: < 5.00
- pIC50 [41]: < 5.00
- pIC50 [42]: < 5.00
- pIC50 [43]: < 5.00
- pIC50 [44]: < 5.00
- pIC50 [45]: < 5.00
- pIC50 [46]: < 5.00
- pIC50 [47]: < 5.00
- pIC50 [48]: < 5.00
- pIC50 [49]: < 5.00
- pIC50 [50]: < 5.00

Structure (SMILES): COc1ccc(C2=N[C@@H](c3ccc(Cl)cc3)[C@@H](c3ccc(Cl)cc3)N2C(=O)N2CCNC(=O)C2)c(OC(C)C)c1 [NUTLIN-3]
- pIC50 [1]: < 5.10
- pIC50 [2]: < 5.10
- pIC50 [3]: < 5.10
- pIC50 [4]: 5.55
- pIC50 [5]: < 5.10
- pIC50 [6]: < 5.10
- pIC50 [7]: < 5.10
- pIC50 [8]: < 5.10
- pIC50 [9]: < 5.10
- pIC50 [10]: < 5.10
- pIC50 [11]: < 5.10
- pIC50 [12]: < 5.10
- pIC50 [13]: < 5.10
- pIC50 [14]: 5.59
- pIC50 [15]: < 5.10
- pIC50 [16]: 5.59
- pIC50 [17]: < 5.10
- pIC50 [18]: < 5.10
- pIC50 [19]: < 5.10
- pIC50 [20]: < 5.10
- pIC50 [21]: < 5.10
- pIC50 [22]: < 5.10
- pIC50 [23]: < 5.10
- pIC50 [24]: < 5.10
- pIC50 [25]: < 5.10
- pIC50 [26]: < 5.10
- pIC50 [27]: < 5.10
- pIC50 [28]: < 5.10
- pIC50 [29]: < 5.10
- pIC50 [30]: 5.47
- pIC50 [31]: < 5.10
- pIC50 [32]: < 5.10
- pIC50 [33]: < 5.10
- pIC50 [34]: 5.17
- pIC50 [35]: < 5.10
- pIC50 [36]: < 5.10
- pIC50 [37]: < 5.10
- pIC50 [38]: < 5.10
- pIC50 [39]: 6.18
- pIC50 [40]: < 5.10
- pIC50 [41]: < 5.10
- pIC50 [42]: < 5.10
- pIC50 [43]: < 5.10
- pIC50 [44]: < 5.10
- pIC50 [45]: < 5.10
- pIC50 [46]: < 5.10
- pIC50 [47]: < 5.10
- pIC50 [48]: < 5.10
- pIC50 [49]: 5.44
- pIC50 [50]: 5.59
